The conditions of data set [1]: known tripeptides; cited from earlier work.
The test system of another data set is T-lymphocytes. As to conditions: known peptides, earlier patent applications and literature; cited from earlier work.
Data set [2] is described as follows: Resistance to the in vitro simulated gastric ambient. The class given is in vitro ADME. The note with it: 37° C., 3 hours, gastric simulated juice USP XXl (HCl+pepsin). The procedure: Resistance to the in vitro simulated gastric ambient
The hexapeptides Arg-Lys-Glu-Arg-Ala-Arg and Arg-Ala-Arg-Arg-Lys-Glu are stable at 37° C. for 3 hours in in vitro simulated gastric ambient using the gastric simulated juice USP XXl (HCl+pepsin).

No end group written: not given here.

As to Arg-Lys-Glu, the “stability to the in vitro simulated gastric juice” value in data set [1] is given as “stable”. Further, the “immunostimulating activity (maturation and functionality of T-lymphocytes)” value (shortened to “immunostimulating activity”) in the data set on T-lymphocytes was “has immunostimulating properties”.

Turning to Arg-Lys-Asp, the “immunostimulating activity” value in the data set on T-lymphocytes is reported as “displays a similar behaviour”.

As for “RARRKE [ARG--ALA--ARG--ARG--LYS--GLU, Arg-Ala-Arg-Arg-Lys-Glu]”, in data set [2], the “Resistance to the in vitro simulated gastric ambient” value is recorded as “stable”.

As for Arg-Ala-Arg, the “stability to the in vitro simulated gastric juice” value in data set [1] is on record as “stable”. Further, the “immunostimulating activity” value with T-lymphocytes is recorded as “endowed with immunostimulating activity”.

Arg-Gly-Asp: the “immunostimulating activity” value with T-lymphocytes is given as “displays a similar behaviour”.

Take “RKERAR [ARG--LYS--GLU--ARG--ALA--ARG, Arg-Lys-Glu-Arg-Ala-Arg]”: the “Resistance to the in vitro simulated gastric ambient” value in data set [2] is given as “stable”.

Values taken from US5079231A, “Immunostimulating peptides, a process for their preparation and pharmaceutical compositions containing them” (Ellem Industria Farmaceutica S.p.A., priority 1988, dated 1992).
